Laboratory results: PubChem BioAssay AID248 (DTP/NCI, 2004)
Values joined by “and” are separate entries in the source; they are usually repeats but may differ in a detail not shown here. Identical values can stand only once. Toxic doses and inconclusive results are not listed. Rule as the data show it: active = T/C of 150% or more; inactive = T/C below 125%.

Test system: L1210 leukemia ip in BDF1 mice, survival T/C
Test: NCI In Vivo Anticancer Drug Screen. Data for tumor model L1210 Leukemia (intraperitoneal) in B6D2F1 (BDF1) mice
Conditions: endpoint: mean survival time, higher = longer survival
Summary of the method: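 Transplantable tumor model; survival measured in treated vs vehicle control mice. Value = treated/control.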

[1] = dose: 100.0 mg/kg/injection, schedule: Q04DX003 (ip), vehicle: saline with Tween-80
[2] = dose: 200.0 mg/kg/injection, schedule: Q04DX003 (ip), vehicle: saline with Tween-80
[3] = dose: 400.0 mg/kg/injection, schedule: Q04DX003 (ip), vehicle: saline with Tween-80
[4] = dose: 100.0 mg/kg/injection, schedule: Q01DX009 (ip), vehicle: saline with Tween-80
[5] = dose: 200.0 mg/kg/injection, schedule: Q01DX009 (ip), vehicle: saline with Tween-80
[6] = dose: 400.0 mg/kg/injection, schedule: Q01DX009 (ip), vehicle: saline with Tween-80
[7] = dose: 100.0 mg/kg/injection, schedule: Q01DX001 (ip), vehicle: Klucel (hydroxypropylcellulose) (HPC)
[8] = dose: 200.0 mg/kg/injection, schedule: Q01DX001 (ip), vehicle: Klucel (hydroxypropylcellulose) (HPC)
[9] = dose: 50.0 mg/kg/injection, schedule: Q01DX009 (ip), vehicle: Klucel (hydroxypropylcellulose) (HPC)
[10] = dose: 100.0 mg/kg/injection, schedule: Q01DX009 (ip), vehicle: Klucel (hydroxypropylcellulose) (HPC)
[11] = dose: 100.0 mg/kg/injection, schedule: Q04DX003 (ip), vehicle: Klucel (hydroxypropylcellulose) (HPC)
[12] = dose: 200.0 mg/kg/injection, schedule: Q01DX009 (ip), vehicle: Klucel (hydroxypropylcellulose) (HPC)
[13] = dose: 200.0 mg/kg/injection, schedule: Q04DX003 (ip), vehicle: Klucel (hydroxypropylcellulose) (HPC)
[14] = dose: 400.0 mg/kg/injection, schedule: Q04DX003 (ip), vehicle: Klucel (hydroxypropylcellulose) (HPC)
[15] = dose: 100.0 mg/kg/injection, schedule: Q01DX001 (ip), vehicle: saline
[16] = dose: 400.0 mg/kg/injection, schedule: Q01DX001 (ip), vehicle: Klucel (hydroxypropylcellulose) (HPC)
[17] = dose: 400.0 mg/kg/injection, schedule: Q01DX009 (ip), vehicle: Klucel (hydroxypropylcellulose) (HPC)

Measured: T/C

NNC(=O)c1ccc(O)cc1
inactive: [1] 95 % of control | [2] 101 % of control | [3] 97 % of control

c1ccc(Cn2cnc3c2nnn2ncnc32)cc1
inactive: dose: 100.0 mg/kg/injection, schedule: Q01DX001 (ip), vehicle: carboxymethylcellulose (CMC) 106 % of control | dose: 200.0 mg/kg/injection, schedule: Q01DX001 (ip), vehicle: carboxymethylcellulose (CMC) 102 % of control | dose: 400.0 mg/kg/injection, schedule: Q01DX001 (ip), vehicle: carboxymethylcellulose (CMC) 114 % of control

COc1cccc2c1C(=O)c1c(O)c3c(c(O)c1C2=O)CC(O)(C(C)=O)CC3OC1OC(COC(C)=O)C(OC(C)=O)C(OC(C)=O)C1NC(=O)C(F)(F)F (configuration not stated)
inactive: dose: 0.63 mg/kg/injection, schedule: Q01DX009 (ip), vehicle: Klucel (hydroxypropylcellulose) (HPC) 98 % of control | dose: 1.25 mg/kg/injection, schedule: Q01DX009 (ip), vehicle: Klucel (hydroxypropylcellulose) (HPC) 91 % of control | dose: 2.5 mg/kg/injection, schedule: Q01DX009 (ip), vehicle: Klucel (hydroxypropylcellulose) (HPC) 94 % of control | dose: 5.0 mg/kg/injection, schedule: Q01DX009 (ip), vehicle: Klucel (hydroxypropylcellulose) (HPC) 97 % of control | dose: 10.0 mg/kg/injection, schedule: Q01DX009 (ip), vehicle: Klucel (hydroxypropylcellulose) (HPC) 97 % of control

CN=C(N)N/N=C/C(C)=N/NC(N)=NC
inactive: dose: 15.0 mg/kg/injection, schedule: Q01DX Z (ip), vehicle: saline 96 % of control | dose: 30.0 mg/kg/injection, schedule: Q01DX Z (ip), vehicle: saline 106 % of control | dose: 60.0 mg/kg/injection, schedule: Q01DX Z (ip), vehicle: saline 104 % of control | dose: 120.0 mg/kg/injection, schedule: Q01DX Z (ip), vehicle: saline 95 % of control

CC(C)=C(c1ccc(Br)cc1)c1ccc(Br)cc1
inactive: dose: 100.0 mg/kg/injection, schedule: Q01DX009 (ip), vehicle: acetone 93 % of control | [1] 105 % of control | [2] 97 % of control | [3] 94 % of control

C=CCC(O)CCC (configuration not stated)
inactive: [4] 89 % of control | [1] 97 % of control | [5] 90 % of control | [2] 100 % of control | [6] 89 % of control | [3] 100 % of control

O=C(O)CNC(=O)Nc1cccc(Cl)c1
inactive: dose: 50.0 mg/kg/injection, schedule: Q01DX001 (ip), vehicle: Klucel (hydroxypropylcellulose) (HPC) 100 % of control | [7] 105 % of control | [8] 108 % of control

CC(=O)Nc1ccccc1C(=O)C(N)=O
inactive: [9] 100 % of control | [10] 94 % of control | [11] 96 % of control | [12] 96 % of control | [13] 95 % of control | [14] 98 % of control

CCOC(=O)C(Br)C(=O)OCC
inactive: dose: 18.75 mg/kg/injection, schedule: Q01DX009 (ip), vehicle: saline with Tween-80 97 % of control

C[N+]1(C)CCOC(O)(c2ccccc2)C1 (configuration not stated)
inactive: dose: 25.0 mg/kg/injection, schedule: Q01DX001 (ip), vehicle: saline 88 % of control | dose: 50.0 mg/kg/injection, schedule: Q01DX001 (ip), vehicle: saline 98 % of control | [15] 95 % of control and 101 % of control

ClC1=C(Cl)C2CCC1C2
inactive: dose: 25.0 mg/kg/injection, schedule: Q01DX009 (ip), vehicle: saline with Tween-80 88 % of control | dose: 50.0 mg/kg/injection, schedule: Q01DX009 (ip), vehicle: saline with Tween-80 98 % of control | dose: 100.0 mg/kg/injection, schedule: Q01DX005 (ip), vehicle: saline with Tween-80 96 % of control | [4] 94 % of control and 98 % of control | dose: 100.0 mg/kg/injection, schedule: Q04DX002 (ip), vehicle: saline with Tween-80 100 % of control | dose: 200.0 mg/kg/injection, schedule: Q01DX005 (ip), vehicle: saline with Tween-80 92 % of control | dose: 200.0 mg/kg/injection, schedule: Q04DX002 (ip), vehicle: saline with Tween-80 100 % of control | dose: 400.0 mg/kg/injection, schedule: Q01DX005 (ip), vehicle: saline with Tween-80 101 % of control

CC(=O)c1ccc(C(=O)NCCCc2c(-c3ccccc3)nc(N)[nH]c2=O)cc1
inactive: [7] 94 % of control | [8] 94 % of control | [16] 96 % of control

CC(=O)Nc1ccc2c(c1)Cc1cccc(NC(C)=O)c1-2
inactive: dose: 25.0 mg/kg/injection, schedule: Q01DX009 (ip), vehicle: Klucel (hydroxypropylcellulose) (HPC) 95 % of control | [9] 103 % of control | [10] 103 % of control

Cc1cccc(Cl)c1NC(=O)Nc1cc(Cl)ccc1O
inactive: [10] 107 % of control | [12] 93 % of control | [17] 100 % of control

CC(=O)c1cnn(-c2ccccc2)c1C
inactive: dose: 100.0 mg/kg/injection, schedule: Q01DX009 (ip), vehicle: other 96 % of control | dose: 100.0 mg/kg/injection, schedule: Q04DX003 (ip), vehicle: other 89 % of control | dose: 200.0 mg/kg/injection, schedule: Q01DX009 (ip), vehicle: other 101 % of control | dose: 200.0 mg/kg/injection, schedule: Q04DX003 (ip), vehicle: other 100 % of control | dose: 400.0 mg/kg/injection, schedule: Q01DX009 (ip), vehicle: other 102 % of control | dose: 400.0 mg/kg/injection, schedule: Q04DX003 (ip), vehicle: other 92 % of control

Cc1ccc(C(=O)/C=C2/SS/C(=C/C(=O)c3ccc(C)cc3)S2)cc1
inactive: dose: 50.0 mg/kg/injection, schedule: Q04DX003 (ip), vehicle: Klucel (hydroxypropylcellulose) (HPC) 100 % of control | [7] 92 % of control | [11] 97 % of control | [8] 95 % of control | [13] 106 % of control | [16] 98 % of control | [14] 110 % of control

CC([NH-])C(=O)O.O=C(O)CN(CC(=O)O)CC(=O)O.[Co+2]
inactive: dose: 50.0 mg/kg/injection, schedule: Q01DX009 (ip), vehicle: saline 110 % of control | dose: 100.0 mg/kg/injection, schedule: Q01DX009 (ip), vehicle: saline 103 % of control | dose: 100.0 mg/kg/injection, schedule: Q04DX003 (ip), vehicle: saline 104 % of control | dose: 200.0 mg/kg/injection, schedule: Q01DX009 (ip), vehicle: saline 93 % of control | dose: 200.0 mg/kg/injection, schedule: Q04DX003 (ip), vehicle: saline 106 % of control | dose: 400.0 mg/kg/injection, schedule: Q04DX003 (ip), vehicle: saline 100 % of control

NS(=O)(=O)c1ccc(NC(=O)Nc2cc(C(F)(F)F)ccc2Cl)cc1
inactive: [10] 95 % of control | [12] 100 % of control | [17] 98 % of control

CCC(C(=O)O)N(C)Cc1ccccc1 (configuration not stated)
inactive: [4] 92 % of control | [5] 89 % of control | [6] 89 % of control

CCCNC(=O)Nc1ccc(C(=O)OCC(C)C)cc1
inactive: [4] 95 % of control | [5] 93 % of control

CC(C)(C)C1COC(=O)C1 (configuration not stated)
inactive: dose: 10.0 mg/kg/injection, schedule: Q01DX001 (ip), vehicle: saline 103 % of control | dose: 20.0 mg/kg/injection, schedule: Q01DX001 (ip), vehicle: saline 98 % of control

COc1ccc(Cl)cc1NC(=O)Nc1ccc(Cl)c(Cl)c1
inactive: [10] 95 % of control | [11] 112 % of control | [12] 92 % of control | [13] 89 % of control | [17] 102 % of control | [14] 109 % of control

CC(C)C(C)(O)C(N)=O (configuration not stated)
inactive: [15] 106 % of control | dose: 200.0 mg/kg/injection, schedule: Q01DX001 (ip), vehicle: saline 101 % of control
